Experimental data taken from US6461863B1, “Modifying insect cell gylcosylation pathways with baculovirus expression vectors” (University of Wyoming, priority 1996, dated 2002).

How the values were obtained:
Sf9 α1,2-mannosidase = target: T1, Sf9 α1,2-mannosidase (Spodoptera frugiperda, UniProt O18498); test: α1,2-mannosidase activity assay, release of [3H]mannose from [3H]Man9GlcNAc by lysates of recombinant baculovirus-infected Sf9 cells; type: biochemical; conditions: cell lysates at 48 hours postinfection (FIG. 15B); for α-mannosidase activity in recombinant baculovirus-infected cells, inhibition by dMNJ: 500 μM dMNJ
T1 construct: This screening procedure identified a full-length α1,2-mannosidase cDNA clone which contains an ORF; made in house; host or cells: Sf9 cells infected with recombinant baculovirus (pVL1393 transfer plasmid, polyhedrin promoter, BacPAK6 DNA); Triton X-100 cell lysate, not purified
T1 sequence (O18498 1-670): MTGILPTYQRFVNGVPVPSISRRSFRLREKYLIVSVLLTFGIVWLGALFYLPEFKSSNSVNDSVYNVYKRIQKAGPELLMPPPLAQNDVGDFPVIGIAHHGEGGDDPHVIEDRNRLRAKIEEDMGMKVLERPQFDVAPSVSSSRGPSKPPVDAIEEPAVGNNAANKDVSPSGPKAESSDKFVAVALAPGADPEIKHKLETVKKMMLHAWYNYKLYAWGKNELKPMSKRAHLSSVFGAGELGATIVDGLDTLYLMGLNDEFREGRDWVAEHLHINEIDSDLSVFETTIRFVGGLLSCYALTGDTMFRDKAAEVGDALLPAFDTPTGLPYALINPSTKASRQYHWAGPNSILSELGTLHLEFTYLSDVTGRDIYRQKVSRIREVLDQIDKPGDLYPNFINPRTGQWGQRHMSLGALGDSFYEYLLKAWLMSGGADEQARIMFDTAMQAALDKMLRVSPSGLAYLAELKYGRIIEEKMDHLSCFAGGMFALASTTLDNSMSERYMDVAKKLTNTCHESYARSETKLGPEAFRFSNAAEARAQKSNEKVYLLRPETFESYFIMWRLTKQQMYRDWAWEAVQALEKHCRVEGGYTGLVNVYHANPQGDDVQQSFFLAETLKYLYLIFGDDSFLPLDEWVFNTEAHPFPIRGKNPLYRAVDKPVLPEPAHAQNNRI
Protocol: Sf9 cell lysates were used for α1,2-mannosidase activity assays with [3H]Man9GlcNAc as described previously (Herscovics and Jelinek-Kelly, 1987) with some modifications. The cells were seeded into 25 cm tissue culture flasks (Corning Glass Works, Corning, N.Y.) at a density of 3 million cells per flask and infected at a multiplicity of infection of 10 plaque forming units per cell with either a recombinant baculovirus encoding the Sf9 α1,2-mannosidase cDNA under the control of the polyhedrin promoter, or wild type baculovirus as a control. The cells were harvested by centrifugation at selected times after infection, washed with 100 mM Na^+MES (pH 6.0), and lysed using 1 ml per 30,000 cells of the same buffer containing 0.5% Triton X-100 with or without 80 mM EDTA.
[…] of the lysates were used in each reaction of the α1,2-mannosidase activity assays. Cell lysates for negative control reactions were boiled for 3 min prior to being added to the reactions. All reactions were carried out in a total volume of […] containing 75 mM Na^+MES (pH 6.0), 0.0625% Triton X-100, and 6000 cpm of [^3H]MangGlcNAc. In addition, some reactions contained CaCl2, MgCl2, EDTA, or dMNJ. The reactions were incubated at 37° C. for 2.5 hours, boiled for 2 min, and 250 ml of a 5 mM solution of CaCl2, MgCl2, and MnCl2, and 175 ml of a 2.25 mg/ml solution of concanavalin A (Boehringer-Mannheim, Indianapolis, Ind.) in 3.8 M NaCl were added to each reaction. The solutions were vortexed gently and incubated at room temperature for two minutes, then 1 ml of 25% PEG-8000 was added and the solutions were vortexed and incubated for another 5 min at room temperature. The solutions were then centrifuged for 2 min at 10,000×g, 1 ml of the supernatant was added to 4 ml of a scintillation cocktail (Ultima Gold™; Packard Instrument Company, Meriden, Conn.), and radioactivity was measured using a Beckman liquid scintillation counter (Model LS 60001C; Beckman Instruments, Inc., Fullerton, Calif.).

N-linked glycans on gp64 = conditions: baculovirus-infected lepidopteran cells (Jarvis and Garcia, 1994); cited from earlier work
Sf9 α-mannosidase II = target: T2, Sf9 α-mannosidase II (Spodoptera frugiperda, UniProt O18497); test: α-mannosidase activity assay with p-nitrophenyl α-D-mannopyranoside on extracts of recombinant baculovirus-infected Sf9 cells; type: biochemical; conditions: various concentrations of swainsonine; extracts 24, 36, 48 h postinfection (FIG. 7B)
T2 construct: The assembled full-length open reading frame of the Sf9 α-mannosidase II cDNA; made in house; host or cells: Sf9 cells infected with recombinant baculovirus (pVL1392 transfer vector, polyhedrin promoter); Triton X-100 cell extract, not purified
T2 sequence (O18497 1-1130): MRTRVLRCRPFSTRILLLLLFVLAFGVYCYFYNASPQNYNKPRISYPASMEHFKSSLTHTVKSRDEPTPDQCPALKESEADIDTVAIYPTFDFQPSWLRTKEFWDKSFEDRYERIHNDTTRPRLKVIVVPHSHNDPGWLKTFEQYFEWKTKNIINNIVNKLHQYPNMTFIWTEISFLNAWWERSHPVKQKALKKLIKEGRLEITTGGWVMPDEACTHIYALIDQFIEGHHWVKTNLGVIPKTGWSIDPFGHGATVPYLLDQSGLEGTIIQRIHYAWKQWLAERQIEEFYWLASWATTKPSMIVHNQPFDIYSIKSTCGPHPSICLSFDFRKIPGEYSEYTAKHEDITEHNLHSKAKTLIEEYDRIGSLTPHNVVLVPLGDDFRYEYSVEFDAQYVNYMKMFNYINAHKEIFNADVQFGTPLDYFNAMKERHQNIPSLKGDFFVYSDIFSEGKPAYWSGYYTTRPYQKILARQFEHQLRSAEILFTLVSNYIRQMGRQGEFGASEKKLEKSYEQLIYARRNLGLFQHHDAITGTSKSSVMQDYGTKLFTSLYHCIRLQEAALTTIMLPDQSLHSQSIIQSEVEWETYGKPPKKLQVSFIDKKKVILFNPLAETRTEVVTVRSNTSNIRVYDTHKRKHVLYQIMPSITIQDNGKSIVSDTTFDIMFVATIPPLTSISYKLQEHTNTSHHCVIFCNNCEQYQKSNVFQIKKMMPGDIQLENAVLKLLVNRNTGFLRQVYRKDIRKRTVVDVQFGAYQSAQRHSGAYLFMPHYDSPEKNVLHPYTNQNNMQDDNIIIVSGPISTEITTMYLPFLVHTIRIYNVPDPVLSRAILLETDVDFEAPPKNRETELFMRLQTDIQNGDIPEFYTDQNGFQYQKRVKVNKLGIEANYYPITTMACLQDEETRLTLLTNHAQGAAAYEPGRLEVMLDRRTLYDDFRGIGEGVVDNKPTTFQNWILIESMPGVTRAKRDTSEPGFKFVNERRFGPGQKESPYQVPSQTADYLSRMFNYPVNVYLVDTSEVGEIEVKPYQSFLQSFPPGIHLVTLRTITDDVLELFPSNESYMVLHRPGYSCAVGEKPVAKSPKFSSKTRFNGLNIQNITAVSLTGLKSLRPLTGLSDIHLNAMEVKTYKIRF
Protocol: Sf9 cells were infected with wild-type or recombinant baculoviruses were harvested by centrifugation at various times after infection, and pellets containing 1×10^6 cells were resuspended in 100 μl of assay buffer (0.1 M MES, pH 6.3; 0.5% Triton-X-100). The cell suspensions were assayed for o-mannosidase activity by mixing 25 μl of the cell extracts with 25 μl of 10 mM p-nitrophenyl α-D-mannopyranoside in the presence or absence of various concentrations of swainsonine. The reaction mixtures were incubated in a microtiter plate for 1 hr at 37° C. with gentle agitation, then quenched by the addition of 200 μl of stop solution (133 mM glycine, 67 mM NaCl, 83 mM Na2CO3). Absorbance was measured at 410 nm on a plate reader (Dynatech Model MR 5000), corrected for light scattering at 570 nm, and the corrected absorbance values were converted to nmol p-nitrophenol using a standard curve produced on the same plate reader.

In the case of `OC[C@H]1NC[C@@H](O)[C@@H](O)[C@@H]1O` [dMNJ, 1-deoxymannojirimycin], the “α-mannosidase activity in recombinant baculovirus-infected cells, inhibition by dMNJ” value (Sf9 α1,2-mannosidase) is listed as “strongly inhibited”, the “α-mannosidase activity in recombinant baculovirus-infected cells, inhibition by dMNJ” value (Sf9 α1,2-mannosidase; listed as 1-deoxymannojirimycin) is listed as “inhibited” and the “processing of N-linked glycans on gp64” value (N-linked glycans on gp64) is listed as “block the processing”.

In the case of `O[C@H]1[C@H]2[C@H](O)CCCN2C[C@H]1O` [swainsonine], the “α-mannosidase activity in recombinant baculovirus-infected cell extracts in the presence of swainsonine” value (Sf9 α-mannosidase II) is reported as “sensitive”.

For `O=C(O)CN(CCN(CC(=O)O)CC(=O)O)CC(=O)O` [EDTA], the “α-mannosidase activity in recombinant baculovirus-infected cells, inhibition by EDTA” value (Sf9 α1,2-mannosidase; 10 mM EDTA, reversed by calcium, not magnesium) was “strongly inhibited”.
